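Test compounds were applied to cells in 96-well plates for 48 hours at 5 doses. TGI: concentration producing complete growth inhibition.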
Columns and labels:
Test in all cases: inhibition of tumour cell growth, NCI panel, 48 h
SNB-19 CNS = test system: SNB-19 CNS
OVCAR-3 ovarian = test system: OVCAR-3 ovarian
ACHN renal = test system: ACHN renal
SN12C renal = test system: SN12C renal
HCT-116 colon = test system: HCT-116 colon
CAKI-1 renal = test system: CAKI-1 renal
NCI-H522 lung = test system: NCI-H522 lung
OVCAR-8 ovarian = test system: OVCAR-8 ovarian
OVCAR-4 ovarian = test system: OVCAR-4 ovarian
RPMI-8226 leukemia = test system: RPMI-8226 leukemia
UACC-62 melanoma = test system: UACC-62 melanoma
A498 renal = test system: A498 renal

| Structure (SMILES) | TGI (SNB-19 CNS) | TGI (OVCAR-3 ovarian) | TGI (ACHN renal) | TGI (SN12C renal) | TGI (HCT-116 colon) | TGI (CAKI-1 renal) | TGI (NCI-H522 lung) | TGI (OVCAR-8 ovarian) | TGI (OVCAR-4 ovarian) | TGI (RPMI-8226 leukemia) | TGI (UACC-62 melanoma) | TGI (A498 renal) |
| --- | --- | --- | --- | --- | --- | --- | --- | --- | --- | --- | --- | --- |
| C/C(=N\O)C(CN1CCCCC1)C(c1ccccc1)c1c(O)c2ccccc2oc1=O (stereo not drawn) | > 100 µM | > 100 µM | > 100 µM | > 100 µM | > 100 µM | > 100 µM | > 100 µM | > 100 µM | > 100 µM | > 100 µM | > 100 µM | > 100 µM |
| COc1ccc(/C=C2\CN(C)CC3C2=NC(=S)NC3c2ccc(OC)cc2)cc1 (stereo not drawn) | > 100 µM | 10.3 µM | > 100 µM | > 100 µM | > 44.7 µM | > 100 µM | > 20.8 µM | > 100 µM | > 70.8 µM | > 24.7 µM | > 100 µM | 26.3 µM |
| COC(=O)C1(C)CCCC2(C)C3CCC4CC3(C=C4CO)CCC12 (stereo not drawn) | > 100 µM | > 100 µM | > 100 µM | 60.7 µM | > 100 µM | > 100 µM | > 100 µM | > 100 µM | > 100 µM | 48.6 µM | > 100 µM | > 100 µM |
| Cc1ccc(S(=O)(=O)c2c3[nH]c4ccccc4nc3n3c2nc2ccccc23)cc1 | > 100 µM | > 100 µM | > 100 µM | > 100 µM | > 100 µM | > 100 µM | > 100 µM | > 100 µM | > 100 µM | > 100 µM | > 100 µM | > 100 µM |
| CC1=NN(C(=O)c2ccc(Cl)cc2)C(=O)/C1=C/c1ccc(O)cc1 | > 100 µM | > 100 µM | > 100 µM | > 100 µM | > 100 µM | > 100 µM | > 100 µM | > 100 µM | > 100 µM | > 100 µM | > 100 µM | > 100 µM |
| N/C(COc1ccc(Cl)cc1)=N\NC(=O)c1ccncc1 | > 100 µM | > 100 µM | > 100 µM | > 100 µM | > 100 µM | > 100 µM | > 100 µM | > 100 µM | > 100 µM | > 100 µM | > 100 µM | > 100 µM |
| CC(C)CCCC(C)[C@H]1CC[C@H]2[C@@H]3CC[C@H]4C[C@@H](CCC=C(c5cc(Cl)c(O)c(C(=O)O)c5)c5cc(Cl)c(O)c(C(=O)O)c5)CC[C@]4(C)[C@H]3CC[C@]12C (stereo partly drawn) (tested in a mixture with another compound) | > 50 µM | > 50 µM | > 50 µM | > 50 µM | > 50 µM | > 50 µM | > 50 µM | > 50 µM | > 50 µM | > 50 µM | > 50 µM | > 50 µM |
| C1=NCCNCCN=Cc2ccccc2OCc2cccc(n2)COc2ccccc21 | > 100 µM | > 65.3 µM | > 100 µM | > 100 µM | > 100 µM | > 95.6 µM | > 66.8 µM | 37.5 µM | 99.7 µM | > 54.1 µM | > 64.3 µM | > 100 µM |
| C/C1=C\CC/C(C)=C/C=C(/C(C)C)CC/C(C(=O)O)=C/CC1 | > 100 µM | 59.5 µM | > 100 µM | > 100 µM | > 100 µM | > 100 µM | > 100 µM | > 100 µM | > 100 µM | 62 µM | > 100 µM | 75.1 µM |
| COC(=O)CC1(O)C(/C=C/c2ccccc2)C(C(=O)OC)C(=O)C(C(=O)OC)C1C(=O)OC (stereo not drawn) | > 100 µM | > 100 µM | > 100 µM | > 100 µM | > 100 µM | > 100 µM | > 100 µM | > 100 µM | > 100 µM | > 100 µM | > 100 µM | > 100 µM |
| COc1cccc(C[C@H]2COC(=O)[C@]2(O)Cc2cccc(OC)c2)c1 | > 100 µM | > 100 µM | > 100 µM | > 100 µM | > 100 µM | > 100 µM | > 100 µM | > 100 µM | > 100 µM | > 100 µM | > 100 µM | > 100 µM |
| CC(C)(c1ccc(OC#N)cc1)c1ccc(OC#N)cc1 | > 100 µM | > 100 µM | > 100 µM | > 100 µM | > 61 µM | > 100 µM | > 31.6 µM | > 100 µM | > 100 µM | > 72.5 µM | > 100 µM | > 100 µM |
| COC(=O)/C=C(/C(=O)OC)c1c(C)cc2c(C)cc(C)cc(C)c1-2 | > 100 µM | 38.3 µM | > 100 µM | 40.2 µM | 18.5 µM | > 100 µM | 28.4 µM | > 86.6 µM | > 100 µM | > 100 µM | > 66.5 µM | 70.3 µM |
| COC(=O)/C(=C\c1cn(C(C)=O)c2ccccc12)P(=O)(OC)OC | 32 µM | 32.4 µM | 25.4 µM | 28 µM | 28 µM | 27 µM | 23.2 µM | 68.9 µM | 30.2 µM | 93.9 µM | 31.1 µM | 31.4 µM |
| O=S1c2ccccc2SCSc2ccccc21 | > 100 µM | > 100 µM | > 100 µM | > 100 µM | > 100 µM | > 100 µM | > 100 µM | > 100 µM | > 100 µM | 70.1 µM | > 100 µM | > 100 µM |
| CSC(=S)OC1C(CO[Si](C)(C)C(C)(C)C)OC2OC(C)(C)OC21 (stereo not drawn) | 47 µM | 31.3 µM | 31.3 µM | 37.1 µM | 36.6 µM | > 100 µM | 31.3 µM | 95.8 µM | > 100 µM | 36.5 µM | 36.1 µM | 43.4 µM |
| CC(C)c1nc2c(Cl)c3ncccc3cc2[nH]c1=O | > 100 µM | > 100 µM | > 100 µM | > 100 µM | > 100 µM | > 100 µM | > 100 µM | > 100 µM | > 100 µM | > 100 µM | > 100 µM | > 100 µM |
| O=CC1C[C@@H](N2C(=O)O[C@@H](c3ccccc3)[C@H]2c2ccccc2)[C@@H]1COCc1ccccc1 (stereo partly drawn) | 37.6 µM | 36.4 µM | 73.2 µM | 48 µM | 32.8 µM | > 100 µM | 34 µM | 55.9 µM | > 100 µM | > 100 µM | 39.9 µM | 49.2 µM |
| Nc1cccc(C#Cc2cccc(C#Cc3cccc(N)n3)n2)n1 | > 100 µM | > 100 µM | > 100 µM | > 100 µM | > 100 µM | > 100 µM | > 100 µM | > 100 µM | > 100 µM | > 100 µM | > 100 µM | > 100 µM |
| O=Cc1ccc(-c2cccc([N+](=O)[O-])c2)s1 | > 100 µM | > 100 µM | > 100 µM | > 100 µM | > 100 µM | > 100 µM | > 100 µM | > 100 µM | > 100 µM | > 100 µM | > 100 µM | 53.4 µM |
| Fc1ccc(Nc2nnc(-c3ccccn3)s2)cc1 | > 100 µM | > 100 µM | > 100 µM | > 100 µM | > 100 µM | > 100 µM | > 100 µM | > 100 µM | > 100 µM | > 100 µM | > 100 µM | > 100 µM |
| O=[N+]([O-])c1ccc(NC(=S)Nc2ccccn2)cc1 | > 100 µM | 99.4 µM | > 100 µM | > 100 µM | > 100 µM | 18.9 µM | > 100 µM | > 100 µM | > 100 µM | > 100 µM | > 100 µM | 45.6 µM |
| c1ccc2c3c([nH]c2c1)C1(CCCCC1)c1c([nH]c2ccccc12)C31CCCCC1 | > 100 µM | > 100 µM | 59 µM | > 100 µM | 37.1 µM | > 100 µM | > 100 µM | 50.4 µM | 26 µM | > 100 µM | 64.5 µM | 54 µM |
| COC(=O)CCC(C)C1CCC2C3CCC4CC5CCC4(C)C3(O5)C(Br)C(Br)C12C (stereo not drawn) | > 100 µM | > 100 µM | > 100 µM | > 100 µM | > 100 µM | > 100 µM | > 100 µM | > 100 µM | > 100 µM | > 100 µM | > 100 µM | > 100 µM |
